What was measured:
Assay in all cases: Extended time kill study, Example 34 (0 to 24 h)
Assay type in all cases: cell-based
[1] = tested on: Escherichia coli
Description: (§1) Time kill studies. Strain suspensions were prepared as described above for the MIC test, and strain suspensions and compound solutions were mixed in the same volume. Samples were removed at specified times including 0 min, 30 sec, 1 min and 5 mins, were diluted in the test medium and streaked on agar. Colonies were counted after 24 to 48 hrs of incubation.
(§2) The time kill studies of Example 33 were extended for five compounds (Nex-59, Nex-60, Nex-61, Nex-62, and Nex-88) using the same methods at longer time periods and at higher multiples of MIC. Nex-88 is a code number for DDAIP.HCl from a different supplier.

[2] = tested on: Pseudomonas aeruginosa
Description: as §1, §2

[3] = tested on: Candida albicans
Description: as §1, §2

[4] = tested on: Staphylococcus aureus
Description: as §1, §2

[5] = tested on: Aspergillus niger
Description: as §1, §2

CCCCCCCCCCCCOC(=O)C(C)NC(C)C.Cl (stereo not drawn) [Nex-60, Dodecyl 2-(isopropylamino)propanoate hydrochloride]
Viable counts, Escherichia coli time kill study ([1]; 1 × MIC, 1 h): <1 Log10 CFU/mL | Viable counts, Escherichia coli time kill study ([1]; 1 × MIC, 2 h): <1 Log10 CFU/mL | Viable counts, Escherichia coli time kill study ([1]; 1 × MIC, 4 h): <1 Log10 CFU/mL | Viable counts, Escherichia coli time kill study ([1]; 1 × MIC, 6 h): <1 Log10 CFU/mL | Viable counts, Escherichia coli time kill study ([1]; 1 × MIC, 24 h): <1 Log10 CFU/mL | Viable counts, Escherichia coli time kill study ([1]; 1×MIC, time 0): 5.02 Log10 CFU/mL | Viable counts, Escherichia coli time kill study ([1]; 2 × MIC, 1 h): <1 Log10 CFU/mL | Viable counts, Escherichia coli time kill study ([1]; 2 × MIC, 2 h): <1 Log10 CFU/mL | Viable counts, Escherichia coli time kill study ([1]; 2 × MIC, 4 h): <1 Log10 CFU/mL | Viable counts, Escherichia coli time kill study ([1]; 2 × MIC, 6 h): <1 Log10 CFU/mL | Viable counts, Escherichia coli time kill study ([1]; 2 × MIC, 24 h): <1 Log10 CFU/mL | Viable counts, Escherichia coli time kill study ([1]; 2 × MIC, time 0): 5.14 Log10 CFU/mL | Viable counts, Escherichia coli time kill study ([1]; 4 × MIC, 1 h): <1 Log10 CFU/mL | Viable counts, Escherichia coli time kill study ([1]; 4 × MIC, 2 h): <1 Log10 CFU/mL | Viable counts, Escherichia coli time kill study ([1]; 4 × MIC, 4 h): <1 Log10 CFU/mL | Viable counts, Escherichia coli time kill study ([1]; 4 × MIC, 6 h): <1 Log10 CFU/mL | Viable counts, Escherichia coli time kill study ([1]; 4 × MIC, 24 h): <1 Log10 CFU/mL | Viable counts, Escherichia coli time kill study ([1]; 4 × MIC, time 0): 5.07 Log10 CFU/mL | Viable counts, Pseudomonas aeruginosa time kill study ([2]; 1 × MIC, 1 h): <1 Log10 CFU/mL | Viable counts, Pseudomonas aeruginosa time kill study ([2]; 1 × MIC, 2 h): <1 Log10 CFU/mL | Viable counts, Pseudomonas aeruginosa time kill study ([2]; 1 × MIC, 4 h): <1 Log10 CFU/mL | Viable counts, Pseudomonas aeruginosa time kill study ([2]; 1 × MIC, 6 h): <1 Log10 CFU/mL | Viable counts, Pseudomonas aeruginosa time kill study ([2]; 1 × MIC, 24 h): <1 Log10 CFU/mL | Viable counts, Pseudomonas aeruginosa time kill study ([2]; 1×MIC, time 0): 5.30 Log10 CFU/mL | Viable counts, Pseudomonas aeruginosa time kill study ([2]; 2 × MIC, 1 h): <1 Log10 CFU/mL | Viable counts, Pseudomonas aeruginosa time kill study ([2]; 2 × MIC, 2 h): <1 Log10 CFU/mL | Viable counts, Pseudomonas aeruginosa time kill study ([2]; 2 × MIC, 4 h): <1 Log10 CFU/mL | Viable counts, Pseudomonas aeruginosa time kill study ([2]; 2 × MIC, 6 h): <1 Log10 CFU/mL | Viable counts, Pseudomonas aeruginosa time kill study ([2]; 2 × MIC, 24 h): <1 Log10 CFU/mL | Viable counts, Pseudomonas aeruginosa time kill study ([2]; 2 × MIC, time 0): 5.28 Log10 CFU/mL | Viable counts, Pseudomonas aeruginosa time kill study ([2]; 4 × MIC, 1 h): <1 Log10 CFU/mL | Viable counts, Pseudomonas aeruginosa time kill study ([2]; 4 × MIC, 2 h): <1 Log10 CFU/mL | Viable counts, Pseudomonas aeruginosa time kill study ([2]; 4 × MIC, 4 h): <1 Log10 CFU/mL | Viable counts, Pseudomonas aeruginosa time kill study ([2]; 4 × MIC, 6 h): <1 Log10 CFU/mL | Viable counts, Pseudomonas aeruginosa time kill study ([2]; 4 × MIC, 24 h): <1 Log10 CFU/mL | Viable counts, Pseudomonas aeruginosa time kill study ([2]; 4 × MIC, time 0): 5.31 Log10 CFU/mL | Viable counts in Log10 CFU/mL ([3]; 1 × MIC, 1 h): 5.51 Log10 CFU/mL | Viable counts in Log10 CFU/mL ([3]; 1 × MIC, 2 h): 5.50 Log10 CFU/mL | Viable counts in Log10 CFU/mL ([3]; 1 × MIC, 4 h): 5.18 Log10 CFU/mL | Viable counts in Log10 CFU/mL ([3]; 1 × MIC, 6 h): 5.09 Log10 CFU/mL | Viable counts in Log10 CFU/mL ([3]; 1 × MIC, 24 h): >6 Log10 CFU/mL | Viable counts in Log10 CFU/mL ([3]; 1 × MIC, 0 h): 5.56 Log10 CFU/mL | Viable counts in Log10 CFU/mL ([3]; 2 × MIC, 1 h): 3.30 Log10 CFU/mL | Viable counts in Log10 CFU/mL ([3]; 2 × MIC, 2 h): 3.00 Log10 CFU/mL | Viable counts in Log10 CFU/mL ([3]; 2 × MIC, 4 h): 3.00 Log10 CFU/mL | Viable counts in Log10 CFU/mL ([3]; 2 × MIC, 6 h): <2.70 Log10 CFU/mL | Viable counts in Log10 CFU/mL ([3]; 2 × MIC, 24 h): <1 Log10 CFU/mL | Viable counts in Log10 CFU/mL ([3]; 2 × MIC, 0 h): 5.51 Log10 CFU/mL | Viable counts in Log10 CFU/mL ([3]; 4 × MIC, 1 h): 3.78 Log10 CFU/mL | Viable counts in Log10 CFU/mL ([3]; 4 × MIC, 2 h): 3.30 Log10 CFU/mL | Viable counts in Log10 CFU/mL ([3]; 4 × MIC, 4 h): 3.00 Log10 CFU/mL | Viable counts in Log10 CFU/mL ([3]; 4 × MIC, 6 h): <2.70 Log10 CFU/mL | Viable counts in Log10 CFU/mL ([3]; 4 × MIC, 24 h): <1 Log10 CFU/mL | Viable counts in Log10 CFU/mL ([3]; 4 × MIC, 0 h): 5.62 Log10 CFU/mL | Viable counts, Staphylococcus aureus time kill study ([4]; 1 × MIC, 1 h): 6.23 Log10 CFU/mL | Viable counts, Staphylococcus aureus time kill study ([4]; 1 × MIC, 2 h): 6.24 Log10 CFU/mL | Viable counts, Staphylococcus aureus time kill study ([4]; 1 × MIC, 4 h): 6.16 Log10 CFU/mL | Viable counts, Staphylococcus aureus time kill study ([4]; 1 × MIC, 6 h): 5.97 Log10 CFU/mL | Viable counts, Staphylococcus aureus time kill study ([4]; 1 × MIC, 24 h): 6.57 Log10 CFU/mL | Viable counts, Staphylococcus aureus time kill study ([4]; 1×MIC, time 0): 6.22 Log10 CFU/mL | Viable counts, Staphylococcus aureus time kill study ([4]; 2 × MIC, 1 h): <3 Log10 CFU/mL | Viable counts, Staphylococcus aureus time kill study ([4]; 2 × MIC, 2 h): <3 Log10 CFU/mL | Viable counts, Staphylococcus aureus time kill study ([4]; 2 × MIC, 4 h): <3 Log10 CFU/mL | Viable counts, Staphylococcus aureus time kill study ([4]; 2 × MIC, 6 h): <3 Log10 CFU/mL | Viable counts, Staphylococcus aureus time kill study ([4]; 2 × MIC, 24 h): <1 Log10 CFU/mL | Viable counts, Staphylococcus aureus time kill study ([4]; 2 × MIC, time 0): 6.20 Log10 CFU/mL | Viable counts, Staphylococcus aureus time kill study ([4]; 4 × MIC, 1 h): <3 Log10 CFU/mL | Viable counts, Staphylococcus aureus time kill study ([4]; 4 × MIC, 2 h): <3 Log10 CFU/mL | Viable counts, Staphylococcus aureus time kill study ([4]; 4 × MIC, 4 h): <3 Log10 CFU/mL | Viable counts, Staphylococcus aureus time kill study ([4]; 4 × MIC, 6 h): <3 Log10 CFU/mL | Viable counts, Staphylococcus aureus time kill study ([4]; 4 × MIC, 24 h): <1 Log10 CFU/mL | Viable counts, Staphylococcus aureus time kill study ([4]; 4 × MIC, time 0): 6.21 Log10 CFU/mL | Viable counts in Log10 CFU/mL ([5]; 1 × MIC, 1 h): 4.60 Log10 CFU/mL | Viable counts in Log10 CFU/mL ([5]; 1 × MIC, 2 h): 4.78 Log10 CFU/mL | Viable counts in Log10 CFU/mL ([5]; 1 × MIC, 4 h): 4.60 Log10 CFU/mL | Viable counts in Log10 CFU/mL ([5]; 1 × MIC, 6 h): 4.30 Log10 CFU/mL | Viable counts in Log10 CFU/mL ([5]; 1 × MIC, 24 h): 3.81 Log10 CFU/mL | Viable counts in Log10 CFU/mL ([5]; 1 × MIC, 0 h): 5.52 Log10 CFU/mL | Viable counts in Log10 CFU/mL ([5]; 2 × MIC, 1 h): 4.30 Log10 CFU/mL | Viable counts in Log10 CFU/mL ([5]; 2 × MIC, 2 h): 4.78 Log10 CFU/mL | Viable counts in Log10 CFU/mL ([5]; 2 × MIC, 4 h): 3.85 Log10 CFU/mL | Viable counts in Log10 CFU/mL ([5]; 2 × MIC, 6 h): 3.78 Log10 CFU/mL | Viable counts in Log10 CFU/mL ([5]; 2 × MIC, 24 h): 4.30 Log10 CFU/mL | Viable counts in Log10 CFU/mL ([5]; 2 × MIC, 0 h): 5.47 Log10 CFU/mL | Viable counts in Log10 CFU/mL ([5]; 4 × MIC, 1 h): 4.00 Log10 CFU/mL | Viable counts in Log10 CFU/mL ([5]; 4 × MIC, 2 h): 4.48 Log10 CFU/mL | Viable counts in Log10 CFU/mL ([5]; 4 × MIC, 4 h): 3.60 Log10 CFU/mL | Viable counts in Log10 CFU/mL ([5]; 4 × MIC, 6 h): 3 Log10 CFU/mL | Viable counts in Log10 CFU/mL ([5]; 4 × MIC, 24 h): <2 Log10 CFU/mL | Viable counts in Log10 CFU/mL ([5]; 4 × MIC, 0 h): 5.60 Log10 CFU/mL

From patent publication US20140357713A1, “ANTIMICROBIAL COMPOUNDS AND METHODS OF USE” (NexMed Holdings, Inc., priority 2012, published 2014)
